# Experimental data reported in patent US10472366B2, “Glucuronide prodrugs of tofacitinib” (THERAVANCE BIOPHARMA R&D IP, LLC, priority 2017, dated 2019).
# Values joined by “and” are separate entries in the source; they are usually repeats but may differ in a detail not shown here. Equal entries are not always repeated.
# Columns and labels:
# [1] = system: β-glucuronidase in rat colon feces; assay: Rat colon fecal homogenate stability assay; assay type: in vitro ADME; conditions: in vitro half-life in rat fecal supernatant-homogenate, anaerobic, 10 μM substrate, individual values when assay repeated; for half-life at 10 μM: male, rat, rat colon fecal supernatant-homogenate, read-out: T½
# Source text: The compounds of the present invention contain a glucuronide prodrug moiety that is expected to be cleaved by β-glucuronidase enzyme. The objective of this assay was to determine the half-life for compounds of the present invention in the presence of β-glucuronidase in rat colon feces.
# Following sacrifice of a naïve male rat (˜300 g) by cardiac puncture exsanguination, the colon was ligated and removed to an anaerobic chamber (AS-580, Anaerobe Systems). The fecal content was removed within the chamber and was diluted 1:10 with phosphate buffer (1 gram fecal content to 9 mL phosphate buffer) and the resulting mixture was homogenized using a handheld Omni Tissue Master. The fecal homogenate was centrifuged at 2000 g for 10 min to remove bulk material and the supernatant was removed and used for the incubations.
# DMSO stock solutions (10 mM) of the test compounds and sulfasalazine (control) were prepared. Sulfasalazine was used as a positive control to confirm viability of the fecal supernatant-homogenate (see, e.g., Azad Khan et al., Clinical Science (1983) 64, 349-354). If the in vitro half-life (T½) for sulfasalazine in the fecal sample was less than 30 min, the fecal sample was deemed to be viable and in true anaerobic conditions. However, if the T½ for sulfasalazine was greater than 30 min, the fecal sample was typically contaminated with oxygen and was not viable. The final substrate concentration of each assay was 10 μM. Reactions were started by adding a 5 μL aliquot of diluted test compound stock solution into 300 μL of rat fecal supernatant-homogenate. At 0, 15, 30, 60, 90, and 120 min post reaction initiation, a 50 μL aliquot was removed and added to a mixture of 200 μL of acetonitrile with 3% formic acid and an internal standard. All samples were centrifuged at 2000 g for 10 min after which 50 μL of supernatant was diluted into 150 μL of water for analysis on an LC-MS system. In vitro half-lives (T½) for the test compounds were calculated as follows: T½=0.693/elimination rate constant. When the assay was performed more than once, individual values are reported.
# [2] = Oral pharmacokinetics in rat assay; assay type: in vivo; conditions: liberated tofacitinib AUC0-6 h in colon tissue; male Sprague Dawley rats, single PO dose 5 mg/kg of test compound
# Method: When cleaved by β-glucuronidase enzyme, the compounds of the present invention release tofacitinib. The object of this assay was to determine tofacitinib exposure (AUC0-6 h) in colon tissue and plasma following oral dosing of compounds of the present invention in rats.
# Male Sprague Dawley rats (n=2/time point) received a single PO oral gavage dose (5 mg/kg in 1:20 mixture of 5% DMSO and 1% HPMC) of test compounds. At 0.5, 1, 3, 6 and 24 h post-dosing, rats were sacrificed via cardiac puncture exsanguination, and blood samples were taken and placed into sample tubes (Microtainer, Becton, Dickinson and Company) containing sodium fluoride and then placed on ice. Plasma was obtained by centrifugation (Eppendorf centrifuge, 5804R) for 4 minutes at approximately 12,000 rpm at 4° C.
# The colons were removed from exsanguinated rats and the colon contents gently removed. The colons were flushed with saline and patted dry. The colons were then homogenized in 3× the weight of sterile water using a tissue homogenizer (Precellys homogenizer, Bertin Instruments) at approximately 4° C. All samples were stored at −80° C. for later bioanalysis.
# The concentration of tofacitinib in each sample was determined as follows: the plasma and colon samples were vortexed, combined with a 50 μL aliquot of rat plasma, extracted with 200 μL of ACN containing an internal standard and quantified against the internal standard by LC-MS. An area-under-the-concentration curve (AUC0-6 h) was calculated for plasma and colon test compound and liberated tofacitinib. A key parameter to assess suitability for localized delivery of tofacitinib to the colon was the tofacitinib colon to plasma AUC ratio.
# [3] = system: oxazolone-induced colitis; assay: Mouse model of oxazolone-induced colitis; assay type: in vivo; conditions: PO, BID, BALB/C mice, vs vehicle/oxazolone, p<0.05
# Method: Oxazolone-induced colitis is an experimental model that has a histological resemblance to human ulcerative colitis (Heller et al. […], 2002, 17, 629-638). Adult BALB/C mice (25-28 g, 9-12 weeks of age) from BioNeeds (India) were used in the assay. On Day 1, animals were lightly anesthetized with isoflurane and the hairs between the shoulder were carefully removed. Oxazolone (6 mg/mouse, 100 μL, 4:1 acetone:olive oil formulation) or vehicle solution was slowly applied to the bare skin patch to induce skin sensitization. Six days after skin sensitization, the mice were fasted overnight and then anesthetized with ketamine and xylazine administered intraperitoneally. A 1 mL syringe filled with oxazolone solution (0.5 mg/50 μL/mouse in 50% ethanol) or 50% ethanol/saline was inserted carefully ˜3.8 cm into the colon of the mouse. Animals were kept in a head down position and oxazolone or vehicle solution was rectally instilled very slowly over a minute. The mice were held vertically (head down) for another minute to ensure that the entire oxazolone or vehicle solution remained inside the colon. Test compound treatment (PO, BID or TID) or vehicle was initiated the evening prior to the oxazolone intrarectal (IR) challenge. On both first (Day 1) and second (Day 2) days post-oxazolone IR challenge, the Disease Activity Index (DAI) was assessed by treatment-blinded experimenters for each mouse, according to the following subscores: stool consistency (0, normal; 2, loose; 4, diarrhea), gross bleeding and hemoccult test (0, absence; 2, blood tinged; 4, overt blood presence), and weight loss (0, none; 1, 1%-5%; 2, 6^%-10%; 3, 11%-15%; 4, more than 15%); DAI=average of (stool consistency+blood presence+weight loss scores).
# An area-under-the-curve (AUC) calculation based on total DAI scores was performed to track disease progression during the course of the experiment. AUC for each experimental group was calculated as: AUC=[(Day 1−Day 0)*Average (DAI Score of Day 0 & Day 1)]+[(Day 2−Day 1)*Average (DAI Score of Day 1 & Day 2)]. A Student's t-test compared the DAI AUC score of the vehicle/vehicle and vehicle/oxazolone groups to evaluate whether disease was induced following oxazolone treatment. This was followed by a one-way analysis of variance (ANOVA), with Dunnett's post hoc test, to compare the DAI AUC score of the vehicle/oxazolone and test compound/oxazolone groups. Statistical significance was defined by an α level set at p<0.05.
# [4] = Oral pharmacokinetics in mouse assay; assay type: in vivo; conditions: liberated tofacitinib AUC0-6 h in colon tissue; male Balb/c mice, single PO dose 5 mg/kg of test compound
# Method: When cleaved by β-glucuronidase enzyme, the compounds of the present invention release tofacitinib. The object of this assay was to determine tofacitinib exposure (AUC0-6 h) in colon tissue and plasma following oral dosing of compounds of the present invention in mice.
# Male Balb/c mice (n=2/time point) received a single PO oral gavage dose (5 mg/kg in 1:20 mixture of 5% DMSO and 1% HPMC) of the test compound. At 2 h and 6 h post-dosing, mice were sacrificed via cardiac puncture exsanguination and blood samples were taken and placed into sample tubes (Microtainer, Becton, Dickinson and Company) containing sodium fluoride and then placed on ice. Plasma was obtained by centrifugation (Eppendorf centrifuge, 5804R) for 4 min at approximately 12,000 rpm at 4° C.
# The colons were removed from the exsanguinated mice and the colon fecal contents were gently removed. The colons were flushed with saline and patted dry. […]
# The concentration of tofacitinib in each sample was determined as follows: the plasma and colon homogenate samples were vortexed, combined with a 50 μL aliquot of rat plasma, extracted with 200 μL of ACN containing an internal standard and quantified against the internal standard by LC-MS. An area-under-the-concentration curve (AUC0-6 h) was calculated for plasma and colon test compound and liberated tofacitinib. […]
SMILES,T½ [1],half-life at 10 μM [1] [min],Colon AUC [2] [µg·h/g],reversal of oxazolone-induced colitis (DAI AUC score) ([3]; 3 and 30 mg/kg),Colon AUC [4] [µg·h/g],reversal of oxazolone-induced colitis (DAI AUC score) ([3]; 30 mg/kg),"reversal of oxazolone-induced colitis (DAI AUC score) ([3]; 3, 10 and 30 mg/kg)"
"C[C@@H]1CCN(C(=O)CC#N)C[C@@H]1N(C)c1ncnc2c1ccn2C(=O)N(C)CCN(C)C(=O)O[C@@H]1O[C@H](C(=O)O)[C@@H](O)[C@H](O)[C@H]1O [Compound II-1, (2S,3S,4S,5R,6S)-6-(((2-(4-(((3R,4R)-1-(2-Cyanoacetyl)-4-methylpiperidin-3-yl)(methyl)amino)-N-methyl-7H-pyrrolo[2,3-d]pyrimidine-7-carboxamido)ethyl)(methyl)carbamoyl)oxy)-3,4,5-trihydroxytetrahydro-2H-pyran-2-carboxylic Acid]",16 min and < 15 min,14,20.2,statistically significant reversal,,,
"C[C@@H]1CCN(C(=O)CC#N)C[C@@H]1N(C)c1ncnc2c1ccn2C(=O)N(C)c1cc([N+](=O)[O-])ccc1O[C@@H]1O[C@H](C(=O)O)[C@@H](O)[C@H](O)[C@H]1O [Compound III-1, (2S,3S,4S,5R,6S)-6-(2-(4-(((3R,4R)-1-(2-Cyanoacetyl)-4-methylpiperidin-3-yl)(methyl)amino)-N-methyl-7H-pyrrolo[2,3-d]pyrimidine-7-carboxamido)-4-nitrophenoxy)-3,4,5-trihydroxytetrahydro-2H-pyran-2-carboxylic Acid]",,2,,,6.07,statistically significant reversal,
"C[C@@H]1CCN(C(=O)CC#N)C[C@@H]1N(C)c1ncnc2c1ccn2C(=O)N(C)c1ccccc1O[C@@H]1O[C@H](C(=O)O)[C@@H](O)[C@H](O)[C@H]1O [Compound III-2, (2S,3S,4S,5R,6S)-6-(2-(4-(((3R,4R)-1-(2-Cyanoacetyl)-4-methylpiperidin-3-yl)(methyl)amino)-N-methyl-7H-pyrrolo[2,3-d]pyrimidine-7-carboxamido)phenoxy)-3,4,5-trihydroxytetrahydro-2H-pyran-2-carboxylic Acid]",29 min and < 15 min,20,33.2,,,,statistically significant reversal
